Results: US11535597B2, “Photoreactive ligands and uses thereof” (The Scripps Research Institute, priority 2017, dated 2022)

Test system: proteins in HEK293T cells
Experiment: MS-based mapping of FFF probe-modified peptides (isoTOP, sites of labeling)
Format: binding, human
Experimental: Preparation and analysis was adapted from methods previously reported. In brief, for global mapping of fragment probe-modified peptides, separate 10 cm dishes of cells were treated with probes (200-250 μM) in 3.0 mL of DMEM (serum-free) and (if applicable) competitor ligands, proteomes harvested and subjected to click chemistry conditions with either light or heavy isotopically labeled biotin-TEV-azide (10 μL of 5 mM stocks in DMSO, final concentration=100 μM), TCEP, ligand and CuSO4 as detailed above. The samples were allowed to react for 1 h at which point the samples were centrifuged (16,000 g, 5 min, 4° C.). The resulting pellets were sonicated in ice-cold methanol (500 μL) and the resuspended light- and heavy-labeled samples were then combined and centrifuged (16,000 g, 5 min, 4° C.). The pellets were then solubilized in PBS containing 1.2% SDS (1 mL) with sonication and heating (5 min, 95° C.). Samples were transferred to falcon tubes containing DPBS (5 mL), to which a 100 μL of streptavidin-agarose beads slurry was added. After incubation, the beads (3 hr) were pelleted by centrifugation (1,400 g, 3 min) and were washed (2×10 mL PBS and 2×10 mL water). The beads were transferred to eppendorf tubes with 1 mL DPBS, centrifuged (1,400 g, 3 min), and resuspended in PBS containing 6 M urea. To this was added 10 mM DTT (25 μL of a 200 mM stock in water) and the beads were incubated at 65° C. for 15 mins. 20 mM iodoacetamide (25 μL of a 400 mM stock in water) was then added and allowed to react at 37° C. for 30 mins with shaking. The bead mixture was diluted with 900 μL PBS, pelleted by centrifugation (1,400 g, 3 min), and resuspended in 200 μL 2M urea (DPBS) containing trypsin and CaCl2 as described above. The beads were separated from the digest by centrifugation (1,000 g, 1 min), washed (2×1 mL PBS and 2×1 mL water) and then transferred to fresh eppendorfs with 1 mL water. The washed beads were washed once further in 150 μL TEV buffer (50 mM Tris, pH 8, 0.5 mM EDTA, 1 mM DTT) by centrifugation (1,400 g, 3 min) and the resuspended in 150 μL TEV buffer. 5 μL TEV protease (80 μM) was added and the reactions were rotated overnight at 29° C. The TEV digest was separated from the beads by centrifugation (1,400 g, 3 min) and the beads were washed once with water (100 μL). The samples were then acidified to a final concentration of 5% (v/v) formic acid and stored at −80° C. prior to analysis.
The resulting probe-modified peptides were collected for MS analysis, which was performed as described above with differences in the salt bumps applied in the chromatographic gradients which in this case were 0%, 30%, 60%, 90% and 100% NH4OAc (500 μM). The protein identification searches of the MS data were performed with the following changes applied to identify the peptides modified with the corresponding fragment probe and the cleaved TEV tag. All amino acids were considered as possible residues for modification. To facilitate the computational searches, sets of up to 3 amino acids were searched using ProLuCID and filtered with DTASelect as described above. […] The isoTOP ratios for probe labeled peptides were quantified using the in-house software CIMAGE.
For each protein in the site-of-labeling dataset, the UniProtKB accession number was used to map and collect relevant structures from the RCSB Protein Data Bank (PDB) fulfilling the following criteria: structures determined by X-ray crystallography, wild-type protein, Homo sapiens as the sole source organism. […] Fpocket 2.0 was used to detect potential binding pockets for the resultant structures with all parameters set at recommended default. Pockets with volume less than 500 Å^3 were removed from output prior to further analysis. Residues surrounding fpocket predicted binding pockets for each protein were collected to determine the number of residues overlapping with isoTOP peptides.

[1] = protein PSMA2 Proteasome subunit alpha type-2 (P25787)
[2] = protein PSMA2 Proteasome subunit alpha type-2, residues of the probe-labeled peptide

## C#CCCC1(CCC(=O)NC2N=C(c3ccccc3)c3ccccc3NC2=O)N=N1 (centres unmarked) [probe 2, 3-(3-(But-3-yn-1-yl)-3H-diazirin-3-yl)-N-(2-oxo-5-phenyl-2,3-dihydro-1H-benzo[e][1,4]diazepin-3-yl)propanamide]
Accession P09211, residues of probe-labeled peptide, family Enzymes
  Labeled Peptide of GSTP1 Glutathione S-transferase P: 56-71
Accession P31942, residues of probe-labeled peptide, family Transcription factors, Regulators
  Labeled Peptide of HNRNPH3 Heterogeneous nuclear ribonucleoprotein H3: 324-343
Accession P35637, residues of probe-labeled peptide, family Transcription factors, Regulators
  Labeled Peptide of FUS RNA-binding protein FUS: 335-348
GSTP1 Glutathione S-transferase P, residues of probe-modified peptide
  Labeled Peptide: 56-71
HNRNPL Heterogeneous nuclear ribonucleoprotein L, residues of probe-modified peptide
  Labeled Peptide: 399-411
MESDC2 LDLR chaperone MESD (Q14696), residues of the probe-labeled peptide
  Labeled Peptide: 113-127
NOC2L (Q9Y3T9), residues of the probe-labeled peptide
  Labeled Peptide: 591-606
P09211 GSTP1 Glutathione S-transferase P
  Labeled Peptide: 56-71
P36873, peptide IYGFYDECK, PDB 4UT2
  Labeled Peptide (residues) of PPP1CC Serine/threonine-protein phosphatase PP1-gamma cat: 133-141
P55263 ADK Adenosine kinase
  Labeled Peptide: 209-224
P62136, peptide IYGFYDECK, PDB 4XPN
  Labeled Peptide (residues) of PPP1CA Serine/threonine-protein phosphatase PP1-alpha cat: 133-141
Protein ADK (P55263), residues of probe-labeled peptide
  Labeled Peptide: 209-224
Protein ADK Adenosine kinase, residues of probe-labeled peptide
  Labeled Peptide: 209-224
Protein BSG Basigin (P35613), residues of probe-labeled peptide
  Labeled Peptide: 228-243
Protein CLPTM1 Cleft lip and palate transmembrane protein 1 (O96005), residues of probe-labeled peptide
  Labeled Peptide: 548-562
Protein EIF3E Eukaryotic translation initiation factor 3 submit (P60228), residues of probe-labeled peptide
  Labeled Peptide: 173-191
Protein EIF3H Eukaryotic translation initiation factor 3 submit (O15372), residues of probe-labeled peptide
  Labeled Peptide: 207-220
Protein EQSR1 RNA-binding protein EWS (Q01844), residues of probe-labeled peptide
  Labeled Peptide: 269-292
Protein FARSB Phenylalanine--tRNA ligase beta subunit, residues of probe-labeled peptide
  Labeled Peptide: 518-530
Protein FARSB Phenylalanini--tRNA ligase beta subunit (Q9NSD9), residues of probe-labeled peptide
  Labeled Peptide: 518-530
Protein P62917 RPL8 60S ribosomal protein L8
  Labeled Peptide: 129-144
Protein PFDN5 Prefoldin subunit 5 (Q99471)
  Labeled Peptide: 20-37
Protein PPP1CA Serine/threonine-protein phosphatase PP1-alpha cat, residues of the probe-labeled peptide
  Labeled Peptide: 133-141
Protein PPP1CA Serine/threonine-protein phosphate PP1-alpha cat (P62136)
  Labeled Peptide: 133-141
Protein PPP1CB Serine/threonine-protein phosphate PP1-alpha cat (P62140)
  Labeled Peptide: 132-140
Protein PPP1CC Serine/threonine-protein phosphatase PP1-gamma cat, residues of the probe-labeled peptide
  Labeled Peptide: 133-141
Protein PPP1CC Serine/threonine-protein phosphate PP1-gamma cat (P36873)
  Labeled Peptide: 133-141
[1]
  Labeled Peptide: 144-159
[2]
  Labeled Peptide: 144-159
Protein PSMD11 26S proteasome non-ATPase regulatory subunit 11 (O00231)
  Labeled Peptide: 164-175
Protein PTCD3 Pentatricopeptide repeat-containing protein 3, mit (Q96EY7)
  Labeled Peptide: 119-126
Protein Q6NUK1 SCLC25A24 Calcium-binding mitochondrial carrier protein SCaM
  Labeled Peptide: 454-469
Protein Q15631 TSN Translin
  Labeled Peptide: 205-215
Protein Q92804 TAF15 TATA-binding protein-associated factor 2N
  Labeled Peptide: 284-297
Protein QKI Protein quaking (Q96PU8)
  Labeled Peptide: 192-205
Protein RUVBL1 RuvB-like 1, residues of the probe-labeled peptide
  Labeled Peptide: 318-333
Protein RUVBL1 RuvB-like 1, residues of the probe-modified peptide
  Labeled Peptide: 91-107
Protein TSN Translin, residues of the probe-modified peptide
  Labeled Peptide: 205-215

## C#CCCC1(CCC(=O)Nc2ccc3oc(=O)ccc3c2)N=N1 [probe 3, 3-(3-(But-3-yn-1-yl)-3H-diazirin-3-yl)-N-(2-oxo-2H-chromen-6-yl)propanamide]
Accession P0C0S5, residues of probe-labeled peptide, family Transcription factors, Regulators
  Labeled Peptide of H2AFZ Histone H2A.Z: 47-75
Accession Q9BQ67, residues of probe-labeled peptide, family Uncategorized
  Labeled Peptide of GRWD1 Glutamate-rich WD repeat-containing protein 1: 183-198
H2AFZ Histone H2A.Z, residues of probe-modified peptide
  Labeled Peptide: 47-75
HSD17B4 Peroxisomal multifunctional enzyme type 2, residues of probe-modified peptide
  Labeled Peptide: 169-183
LMNA Prelamin-A/C (P02545), residues of the probe-labeled peptide
  Labeled Peptide: 172-180
NONO (Q15233), residues of the probe-labeled peptide
  Labeled Peptide: 127-135
P00387 CYB5R3 NADH-cytochrome b5 reductase 3
  Labeled Peptide: 235-241
P00558, peptide QIVWNGPVGVFEWEAFAR, PDB 2WZB
  Labeled Peptide (residues) of PGK1 Phosphoglycerate kinase 1: 333-350
P12532 CKMT1B Creatine kinase U-type, mitochondrial
  Labeled Peptide: 257-269
P38117 ETFB Electron transfer flavoprotein subunit beta
  Labeled Peptide: 36-51
P51659 HSD17B4 multifunctional enzyme type 2
  Labeled Peptide: 169-183
PARP1 (P09874), residues of the probe-labeled peptide
  Labeled Peptide: 954-1000
Q08211 DHX9 ATP-dependent RNA helicase A
  Labeled Peptide: 448-456
Protein ABHD10 (Q9NUJ1), residues of probe-labeled peptide
  Labeled Peptide: 285-300
Protein ACTL6A (O96019), residues of probe-labeled peptide
  Labeled Peptide: 25-34
Protein ANAPC7 (Q9UJX3), residues of probe-labeled peptide
  Labeled Peptide: 407-424
Protein CDK5RAP3 CDK5 regulatory subuni-associated protein 3 (Q96JB5), residues of probe-labeled peptide
  Labeled Peptide: 351-367
Protein CKMT1B Creatine kinase U-type, mitochondria, residues of probe-labeled peptide
  Labeled Peptide: 257-269
Protein CKMT1B Creatine kinase U-type, motochondrial (P12532), residues of probe-labeled peptide
  Labeled Peptide: 257-269
Protein CYB5R3 NADH-cytochrome b5 reductase 3 (P00387), residues of probe-labeled peptide
  Labeled Peptide: 235-241
Protein CYB5R3 NADH-cytochrome b5 reductase 3, residues of probe-labeled peptide
  Labeled Peptide: 235-241
Protein DDX17 Propable ATP-dependent RNA helicase DDX17 (Q92841), residues of probe-labeled peptide
  Labeled Peptide: 536-547
Protein DHX9 ATP-dependent RNA helicase A (Q08211), residues of probe-labeled peptide
  Labeled Peptide: 448-456
Protein DHX9 ATP-dependent RNA helicase A, residues of probe-labeled peptide
  Labeled Peptide: 448-456
Protein EEF1G Elongation factor 1-gamma (P26641), residues of probe-labeled peptide
  Labeled Peptide: 58-85
Protein ETFB Electron transfer flavoprotein subunit beta (P38117), residues of probe-labeled peptide
  Labeled Peptide: 36-51
Protein ETFB Electron transfer flavoprotein subunit beta, residues of probe-labeled peptide
  Labeled Peptide: 36-51
Protein NONO Non-POU domain-containing octamer-binding protein, residues of the probe-labeled peptide
  Labeled Peptide: 127-135
Protein PGK1 Phosphoglycerate kinase 1 (P00558)
  Labeled Peptide: 333-350
Protein PGK1 Phosphoglycerate kinase 1, residues of the probe-labeled peptide
  Labeled Peptide: 333-350
[1]
  Labeled Peptide: 19-39
[2]
  Labeled Peptide: 19-39
Protein Q96I99 SUCLG2 Succinyl-CoA ligase
  Labeled Peptide: 151-160
Protein Q01105 SET Protein SET
  Labeled Peptide: 91-122
Protein RBMXL1 RNA binding motif protein, X-linked-like-1 (Q96E39)
  Labeled Peptide: 245-252

## C#CCCC1(CCC(=O)NCCc2ccc3c(c2)OCO3)N=N1 [probe 15, N-(2-(Benzo[d][1,3]dioxol-5-yl)ethyl)-3-(3-(but-3-yn-1-yl)-3H-diazirin-3-yl)propanamide]
MCM4 (P33991), residues of the probe-labeled peptide
  Labeled Peptide: 502-516
NUDT12 (Q9BQG2), residues of the probe-labeled peptide
  Labeled Peptide: 143-166
Protein FDFT1 Squalene synthase (P37268), residues of probe-labeled peptide
  Labeled Peptide: 78-92
Protein FDFT1 Squalene synthase, residues of probe-labeled peptide
  Labeled Peptide: 78-92
